One block for each compound: values may come before it.
Assays:
[1] = molecular target: T1, Rho-associated protein kinase 2 (Homo sapiens, UniProt O75116); assay: Inhibition of ROCK2 (unknown origin)
[2] = molecular target: T1, Rho-associated protein kinase 2; assay: Inhibition of GST-tagged ROCK2 (5 to 554 residues) (unknown origin) using S6-peptide as substrate preincubated for 15 mins followed by 33P-ATP addition and measured after 120 mins by scintillation counter analysis
[3] = molecular target: T2, Rho-associated protein kinase 1 (Homo sapiens, UniProt Q13464); assay: Inhibition of GST-tagged ROCK1 (1 to 535 residues) (unknown origin) using S6-peptide as substrate preincubated for 15 mins followed by 33P-ATP addition and measured after 120 mins by scintillation counter analysis
[4] = molecular target: T1, Rho-associated protein kinase 2; assay: Inhibition of ROCK2 (unknown origin) using STK2 as substrate incubated for 4 hrs by HTRF assay
[5] = molecular target: T2, Rho-associated protein kinase 1; assay: Inhibition of human recombinant ROCK1 using S6-peptide as substrate as substrate preincubated for 10 mins followed by 33P-labeled ATP addition and measured after 20 mins by Micro-Beta counter analysis
[6] = molecular target: cAMP-dependent protein kinase (PKA) (Homo sapiens, UniProt P22694+P17612+P22612); assay: Inhibition of PKA (unknown origin); assay type: protein assay
[7] = Half life of Wistar rat at 0.910 mg/kg, po and measured upto 7 hrs by HPLC/MS analysis; assay type: ADME, organism-based; details: in vivo, dose 0.91 mg/kg
[8] = Oral bioavailability of Wistar rat at 0.910 mg/kg and measured upto 7 hrs by HPLC/MS analysis; assay type: ADME, organism-based; details: in vivo, dose 0.91 mg/kg
[9] = Clearance of Wistar rat at 0.910 mg/kg, po and measured upto 7 hrs by HPLC/MS analysis; assay type: ADME, organism-based; details: in vivo, dose 0.91 mg/kg
[10] = Stability of compound in human plasma assessed as half life at 1 uM by LC-MS/MS analysis; assay type: ADME, cell-free
[11] = molecular target: T1, Rho-associated protein kinase 2; assay: Inhibition of ROCK2 (unknown origin) using 33P-ATP as substrate and measured after 120 mins by radiometric analysis
[12] = molecular target: Rho-associated protein kinase 2 (Rattus norvegicus, UniProt Q62868); assay: Inhibition of ROCK2 in rat A7R5 cells assessed as MLC phosphorylation at T18/S19 by ELISA; assay type: cell-based
[13] = molecular target: Nicotinamide phosphoribosyltransferase (Homo sapiens, UniProt P43490); assay: Inhibition of recombinant human C-terminally-His tagged NAMPT incubated for 2 to 3 hrs by TR-FRET assay
[14] = molecular target: RAC-beta serine/threonine-protein kinase (Homo sapiens, UniProt P31751); assay: Inhibition of AKT2 (unknown origin)
[15] = molecular target: T2, Rho-associated protein kinase 1; assay: Inhibition of ROCK1 (unknown origin)
[16] = molecular target: RAC-alpha serine/threonine-protein kinase (Homo sapiens, UniProt P31749); assay: Inhibition of AKT1 (unknown origin)
[17] = Inhibition of p70S6K (unknown origin); parameters: species or system Homo sapiens
[18] = molecular target: Ribosomal protein S6 kinase alpha-1 (Homo sapiens, UniProt Q15418); assay: Inhibition of RSK1 (unknown origin)
[19] = molecular target: T2, Rho-associated protein kinase 1; assay: Inhibition of human ROCK1
[20] = molecular target: T1, Rho-associated protein kinase 2; assay: Inhibition of human recombinant ROCK2 using 5FAM-AKRRRLSSLRA-COOH as substrate preincubated for 10 mins followed by substrate addition in presence of ATP and measured after 45 mins by TR-FRET assay
[21] = Induction of neurogenesis in human Embryonic stem cells assessed as cell proliferation incubated for 4 days by CellTiterGlo luminescence assay; assay type: functional, cell-based; details: 96 h
Mus musculus [22] = species on record: Mus musculus; assay: Antidiabetic activity in oxygen induced retinopathy mouse model assessed as decrease in pathological neovascularization at 0.8 %, thrice daily for 6 days by microscopic analysis; assay type: functional; parameters: scale not given: the % may be the effect or the level left; details: time 6 day
Mus musculus [23] = species on record: Mus musculus; assay: Antidiabetic activity in oxygen induced retinopathy mouse model assessed as decrease in pathological neovascularization at 0.4 %, thrice daily for 6 days by microscopic analysis; assay type: functional; parameters: scale not given: the % may be the effect or the level left; details: time 6 day
Mus musculus [24] = species on record: Mus musculus; assay: Antidiabetic activity in oxygen induced retinopathy mouse model assessed as decrease in fluorescein leakage at 0.8 %, thrice daily for 6 days by fluorescein angiography; assay type: functional; parameters: scale not given: the % may be the effect or the level left; details: time 6 day
[25] = molecular target: T2, Rho-associated protein kinase 1; assay: Inhibition of ROCK1 (unknown origin) assessed as inhibition constant
[26] = molecular target: T1, Rho-associated protein kinase 2; assay: Inhibition of ROCK2 (unknown origin) assessed as inhibition constant
[27] = molecular target: T1, Rho-associated protein kinase 2; assay: Inhibition of human recombinant ROCK2 assessed as inhibition constant by microfluidic mobility shift method

T1 sequence (O75116 whole entry, the tested form may be a part): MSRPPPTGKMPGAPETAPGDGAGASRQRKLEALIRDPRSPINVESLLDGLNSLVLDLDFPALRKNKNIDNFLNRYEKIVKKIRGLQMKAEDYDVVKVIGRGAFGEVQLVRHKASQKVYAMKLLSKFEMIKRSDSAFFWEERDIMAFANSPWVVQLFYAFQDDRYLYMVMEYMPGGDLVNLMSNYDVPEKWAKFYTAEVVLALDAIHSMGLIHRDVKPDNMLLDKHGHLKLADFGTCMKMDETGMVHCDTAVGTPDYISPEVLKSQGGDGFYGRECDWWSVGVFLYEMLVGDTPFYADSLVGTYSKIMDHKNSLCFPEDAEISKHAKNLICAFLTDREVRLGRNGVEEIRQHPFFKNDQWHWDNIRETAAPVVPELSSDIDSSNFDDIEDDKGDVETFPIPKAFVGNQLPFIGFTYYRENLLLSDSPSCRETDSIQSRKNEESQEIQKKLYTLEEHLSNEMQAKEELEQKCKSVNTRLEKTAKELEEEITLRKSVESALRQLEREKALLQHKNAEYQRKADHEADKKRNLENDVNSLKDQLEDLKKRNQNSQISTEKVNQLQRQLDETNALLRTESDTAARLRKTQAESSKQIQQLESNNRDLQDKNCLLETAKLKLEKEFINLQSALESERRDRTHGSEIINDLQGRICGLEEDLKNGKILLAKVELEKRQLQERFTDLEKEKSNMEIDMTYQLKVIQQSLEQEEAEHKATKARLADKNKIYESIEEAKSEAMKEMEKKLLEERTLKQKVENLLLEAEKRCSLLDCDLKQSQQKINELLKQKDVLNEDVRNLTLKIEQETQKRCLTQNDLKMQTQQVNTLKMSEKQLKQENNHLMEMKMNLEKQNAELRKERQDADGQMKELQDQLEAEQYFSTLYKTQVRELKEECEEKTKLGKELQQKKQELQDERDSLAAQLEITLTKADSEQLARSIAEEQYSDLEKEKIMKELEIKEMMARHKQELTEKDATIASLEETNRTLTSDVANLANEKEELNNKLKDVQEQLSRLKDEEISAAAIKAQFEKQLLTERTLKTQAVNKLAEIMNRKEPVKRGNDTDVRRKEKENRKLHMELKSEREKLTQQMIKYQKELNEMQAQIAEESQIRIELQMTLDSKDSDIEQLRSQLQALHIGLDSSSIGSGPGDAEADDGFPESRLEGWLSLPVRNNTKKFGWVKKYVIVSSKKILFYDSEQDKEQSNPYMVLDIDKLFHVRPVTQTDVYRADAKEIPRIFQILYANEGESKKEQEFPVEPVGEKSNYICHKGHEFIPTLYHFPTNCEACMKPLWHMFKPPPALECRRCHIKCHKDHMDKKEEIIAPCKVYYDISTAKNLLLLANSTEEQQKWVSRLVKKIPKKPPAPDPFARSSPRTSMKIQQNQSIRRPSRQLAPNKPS
T2 sequence (Q13464 whole entry, the tested form may be a part): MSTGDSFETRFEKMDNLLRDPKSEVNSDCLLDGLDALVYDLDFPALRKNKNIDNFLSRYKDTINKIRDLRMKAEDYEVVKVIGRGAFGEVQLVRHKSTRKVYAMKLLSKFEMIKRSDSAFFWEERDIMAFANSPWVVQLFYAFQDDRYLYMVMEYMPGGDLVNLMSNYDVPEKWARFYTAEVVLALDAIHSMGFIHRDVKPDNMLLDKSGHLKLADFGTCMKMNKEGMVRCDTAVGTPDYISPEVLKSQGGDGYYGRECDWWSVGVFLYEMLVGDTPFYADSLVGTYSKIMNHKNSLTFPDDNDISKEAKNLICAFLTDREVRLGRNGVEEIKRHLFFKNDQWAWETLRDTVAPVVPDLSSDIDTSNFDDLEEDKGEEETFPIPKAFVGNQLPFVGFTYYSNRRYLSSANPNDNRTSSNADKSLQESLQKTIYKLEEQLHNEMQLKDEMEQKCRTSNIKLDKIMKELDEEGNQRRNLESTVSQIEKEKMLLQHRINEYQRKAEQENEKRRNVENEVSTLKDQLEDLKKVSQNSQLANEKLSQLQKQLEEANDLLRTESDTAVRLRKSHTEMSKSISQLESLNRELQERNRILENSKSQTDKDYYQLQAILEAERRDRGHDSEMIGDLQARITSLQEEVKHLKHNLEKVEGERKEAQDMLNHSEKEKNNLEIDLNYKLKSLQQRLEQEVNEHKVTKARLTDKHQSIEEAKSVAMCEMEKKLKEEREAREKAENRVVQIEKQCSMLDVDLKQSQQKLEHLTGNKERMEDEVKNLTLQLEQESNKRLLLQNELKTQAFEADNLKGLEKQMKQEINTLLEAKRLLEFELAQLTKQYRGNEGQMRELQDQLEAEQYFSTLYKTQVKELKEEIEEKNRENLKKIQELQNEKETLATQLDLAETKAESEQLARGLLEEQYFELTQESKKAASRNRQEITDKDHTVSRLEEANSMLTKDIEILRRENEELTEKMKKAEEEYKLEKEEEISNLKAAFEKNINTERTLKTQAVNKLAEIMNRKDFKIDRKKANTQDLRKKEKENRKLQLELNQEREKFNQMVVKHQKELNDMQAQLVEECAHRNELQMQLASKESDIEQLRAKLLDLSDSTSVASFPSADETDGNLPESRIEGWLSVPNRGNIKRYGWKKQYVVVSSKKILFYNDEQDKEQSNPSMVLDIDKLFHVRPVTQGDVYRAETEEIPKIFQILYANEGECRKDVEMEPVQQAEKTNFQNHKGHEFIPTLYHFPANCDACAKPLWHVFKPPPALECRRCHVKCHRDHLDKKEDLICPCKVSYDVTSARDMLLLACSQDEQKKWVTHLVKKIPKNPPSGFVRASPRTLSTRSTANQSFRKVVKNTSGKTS
Nicotinamide phosphoribosyltransferase, sequence (P43490 whole entry): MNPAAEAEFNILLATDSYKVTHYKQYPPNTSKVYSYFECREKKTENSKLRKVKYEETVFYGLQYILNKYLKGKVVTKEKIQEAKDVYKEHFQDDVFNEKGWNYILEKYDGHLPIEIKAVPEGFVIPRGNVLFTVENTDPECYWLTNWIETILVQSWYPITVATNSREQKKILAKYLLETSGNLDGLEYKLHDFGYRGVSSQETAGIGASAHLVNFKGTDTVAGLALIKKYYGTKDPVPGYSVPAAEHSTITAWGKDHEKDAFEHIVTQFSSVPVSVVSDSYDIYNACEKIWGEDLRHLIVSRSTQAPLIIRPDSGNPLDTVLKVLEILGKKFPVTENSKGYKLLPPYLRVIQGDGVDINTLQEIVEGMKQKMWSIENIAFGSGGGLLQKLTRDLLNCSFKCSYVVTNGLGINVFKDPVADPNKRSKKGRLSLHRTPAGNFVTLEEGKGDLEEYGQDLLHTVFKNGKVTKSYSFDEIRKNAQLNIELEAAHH
Ribosomal protein S6 kinase alpha-1, sequence (Q15418 whole entry): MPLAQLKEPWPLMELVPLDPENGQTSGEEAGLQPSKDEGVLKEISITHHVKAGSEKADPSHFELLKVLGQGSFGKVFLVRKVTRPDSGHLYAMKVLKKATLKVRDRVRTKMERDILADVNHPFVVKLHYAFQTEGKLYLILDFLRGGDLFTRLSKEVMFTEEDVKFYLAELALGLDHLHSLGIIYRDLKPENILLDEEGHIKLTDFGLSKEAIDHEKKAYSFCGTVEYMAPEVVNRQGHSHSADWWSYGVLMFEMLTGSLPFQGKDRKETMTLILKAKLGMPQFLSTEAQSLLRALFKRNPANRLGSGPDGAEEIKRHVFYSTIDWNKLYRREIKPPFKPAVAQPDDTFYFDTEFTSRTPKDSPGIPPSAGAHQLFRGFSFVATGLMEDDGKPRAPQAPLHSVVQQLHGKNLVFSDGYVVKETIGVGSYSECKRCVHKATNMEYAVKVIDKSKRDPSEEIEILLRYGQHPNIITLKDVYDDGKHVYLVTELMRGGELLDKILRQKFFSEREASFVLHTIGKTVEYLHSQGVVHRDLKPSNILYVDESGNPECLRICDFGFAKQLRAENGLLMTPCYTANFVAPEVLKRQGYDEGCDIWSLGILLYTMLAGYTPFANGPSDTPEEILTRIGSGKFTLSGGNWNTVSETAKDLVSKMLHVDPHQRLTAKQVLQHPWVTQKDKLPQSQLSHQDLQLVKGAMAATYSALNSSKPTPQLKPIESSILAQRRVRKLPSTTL
RAC-alpha serine/threonine-protein kinase, sequence (P31749 whole entry): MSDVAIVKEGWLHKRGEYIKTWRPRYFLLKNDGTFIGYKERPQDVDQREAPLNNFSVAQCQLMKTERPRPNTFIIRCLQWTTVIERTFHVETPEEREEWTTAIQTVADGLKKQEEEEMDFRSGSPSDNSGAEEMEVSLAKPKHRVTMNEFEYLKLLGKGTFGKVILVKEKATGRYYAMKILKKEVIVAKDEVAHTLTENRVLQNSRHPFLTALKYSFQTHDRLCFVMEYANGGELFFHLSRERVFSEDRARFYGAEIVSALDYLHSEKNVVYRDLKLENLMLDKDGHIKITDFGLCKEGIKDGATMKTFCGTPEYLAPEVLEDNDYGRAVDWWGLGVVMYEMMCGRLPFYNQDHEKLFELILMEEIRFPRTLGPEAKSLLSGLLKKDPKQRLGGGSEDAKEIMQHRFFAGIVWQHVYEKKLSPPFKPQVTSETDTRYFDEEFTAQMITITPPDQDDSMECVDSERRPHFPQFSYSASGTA
RAC-beta serine/threonine-protein kinase, sequence (P31751 whole entry): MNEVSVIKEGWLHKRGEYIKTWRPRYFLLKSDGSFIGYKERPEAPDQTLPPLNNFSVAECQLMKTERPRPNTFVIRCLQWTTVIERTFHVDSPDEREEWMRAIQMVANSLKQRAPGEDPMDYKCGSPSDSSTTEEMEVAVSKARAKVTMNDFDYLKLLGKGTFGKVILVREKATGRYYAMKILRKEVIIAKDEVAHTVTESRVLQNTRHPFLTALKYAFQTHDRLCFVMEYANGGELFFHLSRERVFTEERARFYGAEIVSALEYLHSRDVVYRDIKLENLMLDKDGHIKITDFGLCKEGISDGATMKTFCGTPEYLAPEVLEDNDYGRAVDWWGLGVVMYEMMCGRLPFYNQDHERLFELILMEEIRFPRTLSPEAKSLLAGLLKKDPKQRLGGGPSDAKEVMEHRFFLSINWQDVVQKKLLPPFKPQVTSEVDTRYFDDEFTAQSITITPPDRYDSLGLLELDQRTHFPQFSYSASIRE

Compound: N#Cc1c[nH]c2nccc(Oc3c(F)cc(Nc4ccnc(N)n4)cc3F)c12
IC50 [1]: 1 nM

Compound: COc1cccc(CNC(=O)c2c[nH]c3ccc(-c4cn[nH]c4)cc23)c1
IC50 [4]: 67 nM

Compound: COc1cccc(CNC(=O)c2nc3ccc(-c4cn[nH]c4)cc3[nH]2)c1
IC50 [6]: 1530 nM
IC50 [4]: 4 nM

Compound: O=C(OCC1CCCO1)c1cccc(CN2CCCC(Nc3ccc4[nH]ncc4c3)C2)c1 (stereo unspecified)
half-life at 1 µM [10]: < 5 min
IC50 [11]: 3 nM
IC50 [12]: 240 nM

Compound: COc1cccc(CN(C(=O)c2n[nH]c3cc(-c4cn[nH]c4)ccc23)C2CC2)c1
IC50 [6]: > 20000 nM
IC50 [4]: 6 nM

Compound: COc1cccc(CNC(=O)c2cc3cc(-c4cn[nH]c4)ccc3[nH]2)c1
IC50 [6]: > 20000 nM
IC50 [4]: 17 nM

Compound: O=C(NCc1c(Cl)cccc1Cl)Nc1ccc2[nH]ncc2c1
IC50 [1]: 20 nM

Compound: O=C(Nc1ccc(-c2cn[nH]c2)cc1)OCc1ccccc1
IC50 [6]: > 20000 nM

Compound: O=C(NCc1cccc(O)c1)Nc1nc(-c2ccncc2)cs1
IC50 [15]: 14.5 nM

Compound: COc1cc(-c2cn[nH]c2)ccc1NC(=O)CCc1ccccc1
IC50 [21]: 84 nM

Compound: C[C@H]1CNCCCN1S(=O)(=O)c1cccc2cncc(F)c12
Activity (Mus musculus [22]): 41.9%
Activity (Mus musculus [23]): 23%
Activity (Mus musculus [24]): 58.4%

Compound: COc1cccc(CNC(=O)c2nn(C)c3cc(-c4cn[nH]c4)ccc23)c1
IC50 [6]: 1520 nM
IC50 [4]: < 1 nM

Compound: NC(=O)c1cc(F)c(N[C@H]2CC[C@H](N)CC2)cc1F
IC50 [1]: 26 nM

Compound: OCCOc1cccc(CN2CC[C@@H](Nc3cccc4cnccc34)C2)c1
Ki [25]: 5 nM
Ki [26]: 14 nM

Compound: NCc1ccc(Oc2ccc3c(c2)B(O)OC3)c(F)c1
IC50 [2]: 540 nM
IC50 [3]: 810 nM

Compound: O=C(Nc1ccc(-c2cn[nH]c2)cc1)[C@@H]1CNC[C@H]1c1ccccc1
IC50 [1]: 33 nM

Compound: COc1cccc(CNC(=O)c2c[nH]c3cc(-c4cn[nH]c4)ccc23)c1
IC50 [6]: 3340 nM
IC50 [4]: < 1 nM

Compound: O=c1[nH]ccc2cc(OC3CCNCC3)ccc12 [SAR-407899 FREE BASE]
Ki [27]: 36 nM

The remaining lines, values ahead:

IC50 [1]: 9 nM
Compound: O=C(Cc1ccccc1Cl)Nc1ccc(-c2cn[nH]c2)cc1OCCN1CCCC1

IC50 [2]: 340 nM
IC50 [3]: 730 nM
Compound: NCc1ccc(Oc2ccc3c(c2)B(O)OC3)c(Cl)c1

IC50 [5]: 20 nM
Compound: Nc1nc(Nc2ccc(Oc3ccc4[nH]ncc4c3)c(F)c2)cc(-c2ccncc2)n1

IC50 [6]: 1510 nM
Compound: COc1cccc(CNC(=O)c2[nH]c3cc(-c4cn[nH]c4)ccc3c2CN(C)C)c1

half-life [7]: 1.2 h
bioavailability [8]: 48%
CL/F [9]: 28.3 mL/min/kg
Compound: Cc1c[nH]c2nccc(Oc3c(F)cc(Nc4cc(Cl)nc(N)n4)cc3F)c12 [BAY-549]

IC50 [13]: 44 nM
Compound: O=C(Nc1ccc(-c2n[nH]c(=O)c3c2CCCC3)cc1)N1Cc2ccc(Cl)cc2C1

IC50 [13]: 45 nM
Compound: O=C(Nc1ccc(-c2n[nH]c(=O)c3c2CCCC3)cc1)N1Cc2ccc(F)cc2C1

IC50 [14]: 402 nM
IC50 [1]: < 10 nM
IC50 [15]: < 10 nM
IC50 [16]: 38 nM
IC50 [6]: < 10 nM
IC50 [17]: < 10 nM
IC50 [18]: 85 nM
Compound: NC[C@@](O)(c1ccc(Cl)cc1)c1ccc(-c2cn[nH]c2)cc1 [AT-13148]

IC50 [5]: 6 nM
Compound: Nc1nc(Nc2ccc(Oc3ccc4[nH]ncc4c3)c(F)c2)cc(N2C[C@@H]3CCCN[C@@H]3C2)n1

IC50 [4]: 67 nM
Compound: COc1cccc(CNC(=O)c2n[nH]c3ccc(-c4cn[nH]c4)cc23)c1

IC50 [19]: 85 nM
Compound: O=C(Nc1ccc(-c2ccncc2)cc1)N[C@@H](CO)c1ccccc1

IC50 [20]: 20 nM
Compound: COc1nc(Nc2ccc3[nH]ncc3c2)nc(N2CCNCC2)n1

IC50 [2]: 220 nM
IC50 [3]: 250 nM
Compound: Cc1c(Oc2ccc(CN)cc2F)ccc2c1B(O)OC2

IC50 [6]: 184 nM
IC50 [4]: < 1 nM
Compound: COc1cccc(CN(CCN(C)C)C(=O)c2n[nH]c3cc(-c4cn[nH]c4)ccc23)c1

IC50 [6]: 6740 nM
IC50 [4]: 1.6 nM
Compound: COc1cccc(CNC(=O)c2cc3ccc(-c4cn[nH]c4)cc3[nH]2)c1

IC50 [6]: 3340 nM
IC50 [4]: < 1 nM
Compound: COc1cccc(CNC(=O)c2n[nH]c3cc(-c4cn[nH]c4)ccc23)c1

IC50 [1]: 6 nM
Compound: Cc1nnnn1-c1ccc(C(=O)NCc2cccc(C(=O)NC3=NC4CCN(C)CC4S3)c2)cc1 (stereo unspecified)

Ki [26]: 10 nM
Compound: C[C@@H](N)[C@H]1CC[C@H](C(=O)Nc2ccnc3[nH]ccc23)CC1

IC50 [1]: 200 nM
Compound: C[C@@H](N)c1ccc(C(=O)Nc2ccncc2)cc1

— ChEMBL document CHEMBL5257016, “Rho Kinase (ROCK) Inhibitors and Their Therapeutic Potential” (J Med Chem, 2016)
